Like-named read-outs stand apart in the source and are kept apart here.
Target: T1, Plasmodium falciparum hypoxanthine-guanine-xanthine phosphoribosyltransferase (PfHGXPRT) (Plasmodium falciparum, UniProt Q8IJS1)
T1 construct: gene PF3D7_1012400; recombinant, N-terminal His6 tag (pET28-a), expressed in E. coli BL21 (DE3)
Test: microscale thermophoresis (MST) with labelled His-tagged protein; UV-Vis spectral change
Assay type: binding

T1 sequence (Q8IJS1 entry or part of it): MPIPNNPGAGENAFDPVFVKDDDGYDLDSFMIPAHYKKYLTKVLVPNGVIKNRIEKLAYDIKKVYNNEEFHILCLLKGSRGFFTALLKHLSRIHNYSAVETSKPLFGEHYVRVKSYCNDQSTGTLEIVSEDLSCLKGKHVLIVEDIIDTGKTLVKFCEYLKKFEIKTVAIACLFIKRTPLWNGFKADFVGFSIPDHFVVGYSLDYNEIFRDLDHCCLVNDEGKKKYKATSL

CC(=O)O[C@H]1CC[C@]2(C)[C@H]3CC=C4[C@@H]5[C@@H](C)[C@H](C)CC[C@]5(C(=O)O)CC[C@@]4(C)[C@]3(C)CC[C@H]2C1(C)C [UAA, ursolic acid acetate]
Kd: 2840 nM

iso-mukaadial acetate [IMA]
Kd (read-out: Kd): 83.3 nM
